These results are taken from patent US20250032477A1, “COMPOUNDS, PHARMACEUTICAL COMPOSITIONS, AND METHODS FOR THE TREATMENT, PREVENTION, OR MANAGEMENT OF HYPERPROLIFERATIVE DISORDERS” (VINCERX PHARMA GMBH, priority 2021, published 2025).

One series relates to Caco-2 cells. In words: Caco-2 flux assay for cellular permeability. Conditions: Caco-2 cells; for Caco-2 Flux Papp A-B: apical to basal, 2 hours, HEPES buffer; for Caco-2 Flux Efflux ratio: ratio of Papp (B-A) to Papp (A-B), actively transported when >2 or <0.5. As for the experimental part: Caco-2: The cell permeability of a substance can be investigated by means of in vitro testing in a flux assay using Caco-2 cells [M. D. Troutman and D. R. Thakker, Pharm. Res. 20 (8), 1210-1224 (2003)]. For this purpose, the cells were cultured for 15-16 days on 24-well filter plates. For the determination of permeation, the respective test substance was applied in a HEPES buffer to the cells either apically (A) or basally (B) and incubated for 2 hours. After 0 hours and after 2 hours, samples were taken from the cis and trans compartments. The samples were separated by HPLC (Agilent 1200, Böblingen, Germany) using reverse phase columns. The HPLC system was coupled via a Turbo Ion Spray Interface to a Triple Quadropol mass spectrometer API 4000 (AB SCIEX Deutschland GmbH, Darmstadt, Germany). The permeability was evaluated on the basis of a Papp value, which was calculated using the formula published by Schwab et al. [D. Schwab et al., J. Med. Chem. 46, 1716-1725 (2003)]. A substance was classified as actively transported when the ratio of Papp (B-A) to Papp (A-B) (efflux ratio) was >2 or <0.5. Compounds with an efflux ratio of 0.5-2 are considered not actively transported. In Table 5, reference compounds are provided for comparison. Ref 1 is exatecan mesylate, Ref 2 is DXd, and Ref 3 is 10,11-methylenedioxy-camptothecin (FL118).

Series [1] deals with NCI H292. The series is described as follows: Cytotoxicity in vitro in the presence and absence of legumain. The class given is cell-based. The following applies: Homo sapiens.
Series [2] deals with SUM149. The series is described as above. The class given is cell-based.
Series [3] concerns HT29. The series is described as above. The following applies: Homo sapiens. Type of series: cell-based.
In series [4] the test system is SUM149. The series is described as follows: Cytotoxicity in vitro in the presence and absence of elastase (MTT). Type of series: cell-based. The procedure, abridged:
(§1)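 Cells seeded 24 h beforehand, then treated in triplicate with compound (10^−5 to 10^−13 M) alone or with 10 nM elastase for 72 h at 37 °C. Proliferation measured by MTT (4 h reagent, overnight lysis, absorbance 570 nm), normalised to untreated cells.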

The format of series [5] is physicochemical. The source says: pH dependent ring-opening by hydrolysis of the lactone ring is an issue in the camptothecin class of agents. It is a pH dependent equilibrium between closed lactone form and ring-opened hydroxy acid form which is shifted to the closed ring at acidic pH and to the opened form under basic conditions. Only the lactone form is active. […] The closed and hydrolyzed open forms are differentiable by mass using the LC-MS methods described herein.
Method for acidic eluent: System MS: Waters TOF instrument; System UPLC: Waters Acquity I-CLASS; Column: Waters Acquity UPLC HSS T3 1.8 μm 50×1 mm; Eluent A: 1 L Water+0.100 ml 99% Formic acid (pH 3.4); Eluent B: 1 L Acetonitrile+0.100 ml 99% Formic acid; Gradient: 0.0 min 90% A→1.2 min 5% A→2.0 min 5% A Oven: 50° C.; Flow: 0.40 ml/min; UV-Detection: 210 nm.
Method for basic eluent: System MS: Thermo Scientific FT-MS; System UHPLC+: Thermo Scientific UltiMate 3000; Column: Waters, BEH c18 1.7μ, 2.1×50 mm, Eluent A: 1 L Water+1.0 mL (25% Ammonia) (pH of eluent A=10.2); Eluent B: 1 L Acetonitrile; Gradient: 0.0 min 5% B→2.5 min 95% B→3.5 min 95% B; Oven: 50° C.; Flow: 0.90 ml/min; UV-Detection: 210 nm/Optimum Integration Path 210-300 nm.

Series [6] deals with NCI H292. The series is described as follows: Cytotoxicity in vitro in the presence and absence of elastase (MTT). Type of series: cell-based, human. The procedure, abridged: as §1
Series [7] deals with HT29. The series is described as above. Type of series: cell-based, human. The procedure, abridged: as §1
The next series relates to 786-O. The series is described as above. The class given is cell-based, human. The essentials:
as §1

pIC50: −log10 of the molar value. Where two headings read alike, the source gives them in different places. Where only a bound is given, the exact number is not on record here.

Take `CC[C@@]1(O)C(=O)OCc2c1cc1n(c2=O)Cc2c-1nc1cc(F)c(C)c3c1c2[C@@H](NC(=O)CO)CC3` [Ref 2, DXd, reference compound]: in the series with Caco-2 cells, the “Caco-2 Flux Papp A-B” value is on record as “AA (AA: 1-9)” and the “Caco-2 Flux Efflux ratio” value is given as “A (A: actively transported)”.
As to `CC[C@@]1(O)C(=O)OCc2c1cc1n(c2=O)Cc2cc3cc4c(cc3nc2-1)OCO4` [Ref 3, 10,11-methylenedioxy-camptothecin, reference compound], in the series with Caco-2 cells, the “Caco-2 Flux Papp A-B” value was “CC (CC: 100-999)” and the “Caco-2 Flux Efflux ratio” value is “B (B: not actively transported)”.
For `CC[C@@]1(O)C(=O)OCc2c1cc1n(c2=O)Cc2c-1nc1cc(F)c(C)c3c1c2[C@@H](NC(=O)[C@H](CC(N)=O)NC(=O)[C@H](C)N(C)C(=O)[C@H](C)NC(=O)Cc1ccncc1)CC3` [Compound 11, N-[(pyridin-4-yl)acetyl]-L-alanyl-N-methyl-L-alanyl-N^1-[(1S,9S)-9-ethyl-5-fluoro-9-hydroxy-4-methyl-10,13-dioxo-2,3,9,10,13,15-hexahydro-1H, 12H-benzo[de]pyrano [3′,4′:6,7]indolizino [1,2-b]quinolin-1-yl]-L-aspartamide], the pIC50 in the series on NCI H292 [1] (NCI H292 cells, with legumain, read-out: NCI H292 IC50 w legumain) is 7.00 to 7.96; in the series with NCI H292 [1] (NCI H292 cells, without legumain, read-out: NCI H292 IC50 w/o), 7.00 to 7.96; in the series on SUM149 [2] (SUM149 cells, with legumain, read-out: SUM149 IC50 w legumain), 8.00 to 8.96; in the series on SUM149 [2] (SUM149 cells, without legumain, read-out: SUM149 IC50 w/o) it was 8.00 to 8.96; in the series with HT29 [3] (HT-29, HT29 cells, with legumain, read-out: HT29 IC50 w legumain), < 7.00; in the series on HT29 [3] (HT-29, HT29 cells, without legumain, read-out: HT29 IC50 w/o) it was < 7.00.
As for “exatecan mesylate [Ref 1, reference compound]”, in the series with Caco-2 cells, the “Caco-2 Flux Papp A-B” value is listed as “CC (CC: 100-999)” and the “Caco-2 Flux Efflux ratio” value was “B (B: not actively transported)”.
In the case of `CCCNC(=O)Nc1cccc(S(=O)(=O)Nc2cccc([C@@H](CC(=O)[O-])NC(=O)Nc3ccc(NC(=O)NCCOCCOCCOCCC(=O)N[C@@H](CC(=O)[O-])C(=O)N4CCC[C@H]4C(=O)N[C@H](C(=O)O[C@]4(CC)C(=O)OCc5c4cc4n(c5=O)Cc5c-4nc4cc(F)c(C)c6c4c5[C@@H](NC(C)=O)CC6)C(C)C)cc3)c2)c1.[Na+].[Na+]` [Compound 2, disodium (1S,9S)-1-acetamido-9-ethyl-5-fluoro-4-methyl-10,13-dioxo-2,3,9,10,13,15-hexahydro-1H,12H-benzo[de]pyrano[3′,4′:6,7]indolizino[1,2-b]quinolin-9-yl 1-[(2S)-2-(carboxylatomethyl)-17-{4-[({(1R)-2-carboxylato-1-[3-({3-[(propylcarbamoyl)amino]benzene-1-sulfonyl}amino)phenyl]ethyl}carbamoyl)amino]anilino}-4,17-dioxo-7,10,13-trioxa-3,16-diazaheptadecanan-1-oyl]-L-prolyl-L-valinate], the pIC50 was 10.00 to 11.00 in the series on SUM149 [4] (SUM149 cells, with 10 nM elastase, 72 h, MTT, read-out: SUM149 IC50 w elastase); 8.00 to 8.96 with SUM149 [4] (SUM149 cells, without elastase, 72 h, MTT, read-out: SUM149 IC50 w/o); 9.00 to 10.00 with NCI H292 [6] (NCI H292 cells, with 10 nM elastase, 72 h, MTT, read-out: NCI H292 IC 50 w elastase); 8.00 to 8.96 in the series on NCI H292 [6] (NCI H292 cells, without elastase, 72 h, MTT, read-out: NCI H292 IC 50 w/o); 9.00 to 10.00 in the series on HT29 [7] (HT29 cells, with 10 nM elastase, 72 h, MTT, read-out: HT29 IC50 w elastase); < 7.00 in the series on HT29 [7] (HT29 cells, without elastase, 72 h, MTT, read-out: HT29 IC50 w/o). Further, the pIC50 was 10.00 to 11.00 in the series with 786-O (786-O cells, with 10 nM elastase, 72 h, MTT, read-out: 786-O IC50 w elastase) and 7.00 to 8.00 in the series with 786-O (786-O cells, without elastase, 72 h, MTT, read-out: 786-O IC50 w/o). The “Lactone ring form detected by LC-MS, acidic eluent” value in series [5] (acidic eluent (pH 3.4), UV and mass detection) is “only the closed form (201)”. Also, the “Lactone ring form detected by LC-MS, basic eluent” value in series [5] (basic eluent (pH of eluent A=10.2), UV and mass detection) is “No open form (203) was detected”.
Consider `CCCNC(=O)Nc1cccc(S(=O)(=O)Nc2cccc([C@@H](CC(=O)O)NC(=O)Nc3ccc(NC(=O)NCCOCCOCCOCCC(=O)N[C@@H](CC(=O)O)C(=O)N4CCC[C@H]4C(=O)N[C@H](C(=O)O[C@]4(CC)C(=O)OCc5c4cc4n(c5=O)Cc5c-4nc4cc(F)c(C)c6c4c5[C@@H](N)CC6)C(C)C)cc3)c2)c1` [Compound 4, (1S,9S)-1-amino-9-ethyl-5-fluoro-4-methyl-10,13-dioxo-2,3,9,10,13,15-hexahydro-1H,12H-benzo[de]pyrano[3′,4′:6,7]indolizino[1,2-b]quinolin-9-yl N-(14-{4-[({(1R)-2-carboxy-1-[3-({3-[(propylcarbamoyl)amino]benzene-1-sulfonyl}amino)phenyl]ethyl}carbamoyl)amino]anilino}-14-oxo-4,7,10-trioxa-13-azatetradecanan-1-oyl)-L-alpha-aspartyl-L-prolyl-L-valinate], for which the pIC50 with SUM149 [4] (read-out: SUM149 IC50 w elastase) was > 11.00; in the series on SUM149 [4] (read-out: SUM149 IC50 w/o), 8.00 to 8.96; in the series on NCI H292 [6] (read-out: NCI H292 IC 50 w elastase) it was 10.00 to 11.00; with NCI H292 [6] (read-out: NCI H292 IC 50 w/o), 8.00 to 8.96; with HT29 [7] (read-out: HT29 IC50 w elastase) it was 10.00 to 11.00; with HT29 [7] (read-out: HT29 IC50 w/o) it was 7.00 to 8.00. Further, the pIC50 was 10.00 to 11.00 in the series with 786-O (read-out: 786-O IC50 w elastase) and 8.00 to 8.96 in the series on 786-O (read-out: 786-O IC50 w/o). Also, the “Lactone ring form detected by LC-MS, acidic eluent” value in [5] (pH 3.4) was “only the closed form (301) was detected”.
With `CC[C@@]1(O)C(=O)OCc2c1cc1n(c2=O)Cc2c-1nc1cc(F)c(C)c3c1c2[C@@H](NC(=O)[C@H](CC(N)=O)NC(=O)Cc1ccncc1)CC3` [Compound 10, N^1-[(1S,9S)-9-ethyl-5-fluoro-9-hydroxy-4-methyl-10,13-dioxo-2,3,9,10,13,15-hexahydro-1H,12H-benzo[de]pyrano[3′,4′:6,7]indolizino[1,2-b]quinolin-1-yl]-N^2-[(pyridin-4-yl)acetyl]-L-aspartamide], the pIC50 in the series on NCI H292 [1] (NCI-H292, read-out: NCI H292 IC50 w legumain) is < 7.00; with NCI H292 [1] (NCI-H292, read-out: NCI H292 IC50 w/o), < 7.00; in the series on SUM149 [2] (SUM149, read-out: SUM149 IC50 w legumain), < 7.00; in the series on SUM149 [2] (SUM149, read-out: SUM149 IC50 w/o), < 7.00; with HT29 [3] (HT-29, read-out: HT29 IC50 w legumain), < 7.00; with HT29 [3] (HT-29, read-out: HT29 IC50 w/o), < 7.00.
